Experiments:
Format in all cases: physicochemical
[1] = Solubility of compound I free base in MIBK
Method: In one aspect, the dissolution solvent is MIBK. The solubility of compound I free base in MIBK is about 8.2 wt. % at 90° C., about 5.2 wt. % at 80° C., about 4 wt. % at 70° C., about 3 wt. % at 60° C., about 2 wt. % at 50° C., about 1.4 wt. % at 40° C., about 1 wt. % at 30° C., about 0.9 wt. % at 20° C., about 0.6 wt. % at 10° C., about 0.4 wt. % at 0° C., and about 0.2 wt. % at −10° C. In some aspects, a 6.5 wt. % to 7.5 wt. % solution of compound I free base in MIBK is formed at 90° C. Following filtration at about 90° C., the solution may be cooled to about 75° C. following by addition of seed crystals to form a slurry, and optionally held (aged) at that temperature for a period of time, such as from about 0.5 to about 2 hours. The slurry may then be cooled, such as for instance to about −10° C., and aged at that temperature for a period of time, such as from about 2 to about 10 hours. Solid crystallized compound I may be isolated, and washed with chilled MIBK (e.g., at about 0° C. to about 10° C.) and then with chilled alcohol, such as ethanol (e.g., at about 0° C. to about 10° C.). Crystalline compound I may be dried at a temperature of from about 40° C. to about 70° C. (e.g., 60° C.) under vacuum (e.g., about 20 mbar or less) until a constant weight is achieved.

[2] = Mechanical stress evaluation: crystallinity by XRPD
Method: (§1) Compound 1, produced generally according to the method of Example 5, was evaluated for changes induced mechanical stress conditions, where crystallinity was evaluated by XRPD and where thermoanalytic characteristics were measured by differential scanning calorimetry (“DSC”), thermogravimetric analysis (“TGA”) and dynamic vapor sorption (“DVS”).
In a first evaluation, compound 1 was micronized by jet milling and evaluated by XRPD and DSC.
(§2) About 500 mg of compound 1 was dry grinded for about 5 minutes at ambient conditions with a mortar and pestle in order to simulate shear stresses encountered during a dry granulation. […] Furthermore, thermoanalytic data as measured by DSC, TGA, and DVS was only marginally different from compound 1 starting material (see Table 12 below).
(§3) The effect of pressure on compound 1 was performed to investigate whether phase transformation could occur during tableting. The conditions were 1.8 T/5 mm compact, 900 MPa, about 30 mg of compound 1, and a dwell time of about 6 seconds). The tablets were analyzed without further treatment and after gentle crushing of the tablets with a pestle. […] FIG. 2 pattern (b) is the XRPD pattern for crushed tablets. FIG. 2 pattern (c) is the XRPD pattern for tablets that were not crushed.
(§4) To simulate wet milling, wet manual grinding experiments were done. About 500 mg of compound 1 and about 0.5 mL water were kneaded for about 5 minutes with a mortar and pestle. About 100 mg of the wet material was analyzed by XRPD. The remainder of the material was dried overnight in an oven at 50° C. and ambient pressure. The dried material was analyzed by […], DSC, TGA, and DVS.

[3] = Mechanical stress evaluation: thermogravimetric analysis (TGA)
Method: as §1, §2, §3, §4

[4] = Mechanical stress evaluation: dynamic vapor sorption (DVS)
Method: as §1, §2, §3, §4

[5] = after Dry Granulation (dry grinding about 5 minutes, mortar and pestle)
[6] = after Wet Granulation (wet manual grinding with water, dried at 50° C.)
[7] = untreated compound 1 starting material

With Nc1ncc(-c2cc(N3C[C@@H]4C[C@H]3CO4)nc(N3CCC(F)(F)C3)n2)cc1OC(F)F [Compound 1, 5-(6-((1S,4S)-2-oxa-5-azabicyclo[2.2.1]heptan-5-yl)-2-(3,3-difluoropyrrolidin-1-yl)pyrimidin-4-yl)-3-(difluoromethoxy)pyridin-2-amine] the “solubility in MIBK” value ([1]; 0° C.) was “about 0.4 wt. %”, the “solubility in MIBK” value ([1]; 10° C.) was “about 0.6 wt. %” and the “solubility in MIBK” value ([1]; 20° C.) was “about 0.9 wt. %”. For the same compound, the “solubility in MIBK” value ([1]; 30° C.) was “about 1 wt. %”, the “solubility in MIBK” value ([1]; 40° C.) was “about 1.4 wt. %” and the “solubility in MIBK” value ([1]; 50° C.) was “about 2 wt. %”. For the same compound, the “solubility in MIBK” value ([1]; 60° C.) was “about 3 wt. %”, the “solubility in MIBK” value ([1]; 70° C.) was “about 4 wt. %” and the “solubility in MIBK” value ([1]; 80° C.) was “about 5.2 wt. %”. For the same compound, the “solubility in MIBK” value ([1]; 90° C.) was “about 8.2 wt. %”, the “solubility in MIBK” value ([1]; −10° C.) was “about 0.2 wt. %” and the “crystallinity by XRPD” value ([2]; after manual wet milling and after hot drying of wet milled material) was “No reduction in the crystallinity”. The “crystallinity by XRPD” value ([2]; dry grinded about 5 minutes with mortar and pestle (simulated dry granulation)) was “No reduction of crystallinity”, the influence on crystallinity ([2]; micronized by jet milling) was “no significant influence on crystallinity” and the “crystallinity by XRPD” value ([2]; tableting, 900 MPa, dwell about 6 seconds, with and without crushing of the tablets) was “some reduction of crystallinity”. The “TGA Total wt. loss” value [3, 5] was 0.2% m/m, the “TGA Total wt. loss” value ([3]; after Tableting (900 MPa)) was 0.3% m/m and the “TGA Total wt. loss” value ([3]; after Tableting (crushing)) was 0.3% m/m. The “TGA Total wt. loss” value [3, 6] was 0.2% m/m, the “TGA Total wt. loss” value [3, 7] was 0.1% m/m and the “DVS Δm (0-90% RH)” value [4, 5] was 0.1% m/m. For the same compound, the “DVS Δm (0-90% RH)” value ([4]; after Tableting (900 MPa)) was <0.1% m/m, the “DVS Δm (0-90% RH)” value ([4]; after Tableting (crushing)) was 0.1% m/m and the “DVS Δm (0-90% RH)” value [4, 6] was <0.1% m/m. For the same compound, the “hygroscopicity by DVS” value ([4]; compacted (tableted) samples versus starting material) was “did not show a significant increase of hygroscopicity” and the “DVS Δm (0-90% RH)” value [4, 7] was <0.1% m/m.
